Test: xn = mol fraction of the nth substance listed
Conditions: for surface tension liquid-gas: Wilhelmy plates; for viscosity / mass density: 101 kPa, Liquid; for viscosity: Capillary tube (Ostwald / Ubbelohde) method; for mass density: Vibrating tube method

CC(=O)[O-].CCn1cc[n+](C)c1 [1-ethyl-3-methylimidazolium acetate] + CC(C)O
Conditions | mass density, 288.15 K [kg/m3] | mass density, 298.15 K [kg/m3] | mass density, 308.15 K [kg/m3] | surface tension liquid-gas, 288.15 K [mN/m] | surface tension liquid-gas, 298.15 K [mN/m] | surface tension liquid-gas, 308.15 K [mN/m] | viscosity, 288.15 K [mPa·s] | viscosity, 298.15 K [mPa·s] | viscosity, 308.15 K [mPa·s]
x1 = 0.1 | 852.68 | 845.22 | 837.68 | 23.6 | 23.2 | 22.5 | 5.55 | 4.171 | 3.204
x1 = 0.2 | 901.6 | 894.12 | 887.04 | 25.5 | 25.1 | 24.6 | 8.842 | 6.64 | 5.142
x1 = 0.3 | 941.78 | 934.95 | 928.14 | 27.5 | 26.9 | 26.6 | 14.85 | 10.84 | 8.186
x1 = 0.4 | 976.37 | 969.7 | 963.07 | 29.4 | 29 | 28.3 | 24.85 | 17.31 | 12.6
x1 = 0.5 | 1006.01 | 999.47 | 992.98 | 31.5 | 31.2 | 30.5 | 40.69 | 26.86 | 18.61
x1 = 0.5997 | – | – | – | 33 | 32.6 | 32.1 | – | – | –
x1 = 0.5998 | 1031.55 | 1025.12 | 1018.74 | – | – | – | 64.17 | 40.4 | 26.86
x1 = 0.7 | 1053.83 | 1047.51 | 1041.21 | 35.1 | 34.5 | 34.1 | 100.7 | 58.42 | 36.9
x1 = 0.7993 | 1072.97 | 1066.77 | 1060.56 | – | – | – | 147.9 | 81.31 | 49.32
x1 = 0.7994 | – | – | – | 37.7 | 37.4 | 37 | – | – | –
x1 = 0.9 | 1090.17 | 1084.05 | 1077.92 | 41.2 | 40.9 | 40.5 | 212.4 | 109.9 | 63.37
x1 = 1 | 1105.2 | 1099.03 | 1092.93 | 47.7 | 47.1 | 46.6 | 283.8 | 139 | 77.32
